Measured values taken from publication PMC3914206.

Experiments:
Type in all cases: binding
Settings in all cases: Compound Concentration 10 µM
panel of 442 kinases [1] = target: T1, panel of 442 kinases (Homo sapiens, UniProt Q9H422)
T1 construct: purchased KINOMEscan
Excerpt: (§1) We assessed the selectivity of members of this scaffold using the KINOMEscan methodology across a near comprehensive panel of 442 kinases [[18,27]].

panel of 442 kinases [2] = target: T2, panel of 442 kinases (Homo sapiens, UniProt Q96RR4)
T2 construct: purchased KINOMEscan
Excerpt: as §1

panel of 442 kinases [3] = target: T3, panel of 442 kinases (Homo sapiens, UniProt Q13153)
T3 construct: purchased KINOMEscan
Excerpt: as §1

T2 sequence (Q96RR4 whole entry): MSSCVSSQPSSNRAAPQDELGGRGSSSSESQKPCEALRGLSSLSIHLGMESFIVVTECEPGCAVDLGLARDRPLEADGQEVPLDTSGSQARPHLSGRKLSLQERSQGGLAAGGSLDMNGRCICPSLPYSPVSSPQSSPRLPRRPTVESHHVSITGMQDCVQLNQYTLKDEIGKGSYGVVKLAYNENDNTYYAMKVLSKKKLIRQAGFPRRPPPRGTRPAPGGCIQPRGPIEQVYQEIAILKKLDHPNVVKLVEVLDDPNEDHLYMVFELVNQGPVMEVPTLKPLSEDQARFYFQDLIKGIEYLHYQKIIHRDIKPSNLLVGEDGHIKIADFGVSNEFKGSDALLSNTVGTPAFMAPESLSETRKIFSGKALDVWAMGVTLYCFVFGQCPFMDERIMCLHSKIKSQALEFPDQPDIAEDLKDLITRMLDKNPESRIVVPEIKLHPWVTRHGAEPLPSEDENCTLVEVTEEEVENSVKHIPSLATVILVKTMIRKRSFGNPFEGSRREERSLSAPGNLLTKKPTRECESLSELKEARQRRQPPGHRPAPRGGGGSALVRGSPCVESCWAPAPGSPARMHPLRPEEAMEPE
T1 sequence (Q9H422 whole entry): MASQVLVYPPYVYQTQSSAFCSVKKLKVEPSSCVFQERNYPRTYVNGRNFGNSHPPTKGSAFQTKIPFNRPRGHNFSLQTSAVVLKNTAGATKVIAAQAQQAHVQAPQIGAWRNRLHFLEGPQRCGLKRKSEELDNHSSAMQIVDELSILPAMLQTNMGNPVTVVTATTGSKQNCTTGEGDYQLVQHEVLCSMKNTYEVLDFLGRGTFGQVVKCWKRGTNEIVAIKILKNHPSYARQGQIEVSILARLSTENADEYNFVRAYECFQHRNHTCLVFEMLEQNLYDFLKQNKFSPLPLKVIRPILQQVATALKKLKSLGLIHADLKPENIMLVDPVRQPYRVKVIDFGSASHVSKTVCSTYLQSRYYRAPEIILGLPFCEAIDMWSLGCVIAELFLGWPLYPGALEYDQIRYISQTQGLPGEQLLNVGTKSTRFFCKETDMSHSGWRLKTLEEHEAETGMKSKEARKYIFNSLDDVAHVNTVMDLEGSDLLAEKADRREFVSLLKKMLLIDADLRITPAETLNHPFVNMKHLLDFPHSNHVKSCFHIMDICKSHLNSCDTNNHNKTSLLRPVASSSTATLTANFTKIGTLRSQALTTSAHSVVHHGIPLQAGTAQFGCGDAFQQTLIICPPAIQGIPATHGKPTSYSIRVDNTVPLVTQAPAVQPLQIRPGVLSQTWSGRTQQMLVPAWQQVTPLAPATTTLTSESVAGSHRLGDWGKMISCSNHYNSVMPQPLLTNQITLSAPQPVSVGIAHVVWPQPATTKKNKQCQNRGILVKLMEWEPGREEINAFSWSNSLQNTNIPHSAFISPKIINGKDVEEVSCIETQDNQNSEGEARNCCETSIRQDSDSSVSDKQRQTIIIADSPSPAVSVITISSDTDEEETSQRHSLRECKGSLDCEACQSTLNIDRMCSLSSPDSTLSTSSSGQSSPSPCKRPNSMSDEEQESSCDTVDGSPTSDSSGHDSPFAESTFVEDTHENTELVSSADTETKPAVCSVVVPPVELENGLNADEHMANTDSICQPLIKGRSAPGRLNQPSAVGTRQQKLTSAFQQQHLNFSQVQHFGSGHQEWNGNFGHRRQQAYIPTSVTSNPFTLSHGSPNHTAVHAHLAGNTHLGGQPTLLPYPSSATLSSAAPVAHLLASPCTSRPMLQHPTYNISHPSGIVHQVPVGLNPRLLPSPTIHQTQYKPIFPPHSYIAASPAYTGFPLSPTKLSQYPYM
T3 sequence (Q13153 whole entry): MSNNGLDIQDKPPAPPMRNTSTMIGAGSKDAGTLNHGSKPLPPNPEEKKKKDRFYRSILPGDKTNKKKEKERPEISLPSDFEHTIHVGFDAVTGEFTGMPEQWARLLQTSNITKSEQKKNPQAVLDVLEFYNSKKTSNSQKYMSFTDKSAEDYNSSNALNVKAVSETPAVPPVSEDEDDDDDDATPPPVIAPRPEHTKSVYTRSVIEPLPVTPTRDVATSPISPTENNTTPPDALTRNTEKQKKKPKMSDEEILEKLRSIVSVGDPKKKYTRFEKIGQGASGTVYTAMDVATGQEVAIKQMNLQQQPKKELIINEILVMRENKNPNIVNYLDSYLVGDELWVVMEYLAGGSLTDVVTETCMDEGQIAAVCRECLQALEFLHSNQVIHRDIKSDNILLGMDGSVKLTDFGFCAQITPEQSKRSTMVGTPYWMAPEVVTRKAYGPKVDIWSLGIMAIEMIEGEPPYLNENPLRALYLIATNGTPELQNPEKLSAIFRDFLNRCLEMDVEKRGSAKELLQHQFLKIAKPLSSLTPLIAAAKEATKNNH

Q: `COc1cc(C(=O)N2CCC(N3CCN(C)CC3)CC2)ccc1Nc1ncc2c(n1)N(C)c1ccccc1C(=O)N2C` [15 (LRRK2-IN-1)] was tested. Which “KINOMEscan: HIPK3” value (panel of 442 kinases [1]) did it give?
A: 89

Q: And the “KINOMEscan: CAMKK2” value (panel of 442 kinases [2])?
A: 31

Q: And the “KINOMEscan: PAK1” value (panel of 442 kinases [3])?
A: 95

Q: How did the “KINOMEscan: HIPK3” value (panel of 442 kinases [1]) turn out when `COc1cc(C(=O)N2CCC(N3CCN(C)CC3)CC2)ccc1Nc1ncc2c(n1)N1CCc3cccc(c31)C(=O)N2C` [Compound 24] was run?
A: 48

Q: What about the “KINOMEscan: CAMKK2” value (panel of 442 kinases [2]) of the same compound?
A: 52

Q: What about the “KINOMEscan: PAK1” value (panel of 442 kinases [3]) of the same compound?
A: 85

Q: Which results are given for `COc1cc(C(=O)N2CCC(N3CCN(C)CC3)CC2)ccc1Nc1ncc2c(n1)N(C1CCCC1)c1ccccc1C(=O)N2C` [Compound 25, 11-cyclopentyl-2-((2-methoxy-4-(4-(4-methylpiperazin-1-yl)piperidine-1-carbonyl)phenyl)amino)-5-methyl-5H-benzo[e]pyrimido[5,4-b][1,4]diazepin-6(11H)-one]?
A: KINOMEscan: HIPK3 (panel of 442 kinases [1]): 100; KINOMEscan: CAMKK2 (panel of 442 kinases [2]): 78; KINOMEscan: PAK1 (panel of 442 kinases [3]): 82

Q: With `CCOc1cc(C(=O)N2CCC(N3CCN(C)CC3)CC2)ccc1Nc1ncc2c(n1)N(C1CCCC1)c1ccccc1C(=O)N2C` [Compound 26] as the compound, how does the “KINOMEscan: HIPK3” value (panel of 442 kinases [1]) read?
A: 92

Q: What about the “KINOMEscan: CAMKK2” value (panel of 442 kinases [2]) of the same compound?
A: 100

Q: And the “KINOMEscan: PAK1” value (panel of 442 kinases [3])?
A: 100
